In PMC9383034, “Impact of microcin J25 on the porcine microbiome in a continuous culture model” (Frontiers in Microbiology, 2022):
Bridge positions count the residues as written; N and C are the ends. Ends that are not written are not given here.

Legend:
[1] = tested on: swine colonic microbiota; assay: PMA-qPCR counts of bacterial groups in PolyFermS swine colon fermentation model; format: cell-based; conditions: for impact on total bacterial counts: PolyFermS, with Salmonella Newport 10^7 cfu/mL, 0.4 mM MccJ25 or 4 mM reuterin, 24 h
Procedure: (§1) The in vitro fermentation model of the swine colon has been described elsewhere in detail ([Tanner et al., 2014]) and in our previous study ([Naimi et al., 2020]). […] Seeded with 30% (v/v) swine fecal beads, the inoculum reactor IR (useful volume of 250 mL) was fed fresh nutrient medium continuously (Figure 1A). Effluent from IR was used to continuously inoculate at 10% (v/v) the test reactors TR1 and TR2, which also received 90% (v/v) fresh medium (Figure 1B). The feed rate of the three reactors controlled using peristaltic pumps (model 120U, Watson-Marlow, Falmouth, Cornwall, United Kingdom) was set at 27 mL/h for a mean retention time in IR and TRs of 9 h. For the first 3 days, the IR was run in repeated-batch mode, the medium replaced every 12 h with fresh medium, in order to colonize fecal bead. Continuous feeding was then started, followed by 12 days of stabilization before connection to TR1 and TR2. Continuous culture was split into three periods: stabilization, treatment and wash. Conditions were kept constant in IR to assess the temporal stability of the system without any manipulation during the entire fermentation, while TR1 and TR2 were subjected to treatments for various periods. Between each period, culture was flushed from TR1 and TR2 as described previously ([Tanner et al., 2014]). TR1 and TR2 were subjected to a washing procedure with 10% chlorine solution to decontaminate and remove any historical effect of the previous periods. Briefly, TR1 and TR2 were disconnected from the IR, the entire medium was removed and reactors were filled with 10% freshly prepared chlorine solution. After stirring for 1 h, the reactors were rinsed twice by adding sterile distilled water and stirring for another hour. After complete removal of water and chlorine residues, reactors were filled with sterile fresh nutritive medium and reconnected to the IR. After each flush, they were stabilized for 3 days until a steady state was reached before starting the next treatment period.
The inhibitory activity of MccJ25, reuterin and rifampicin against Salmonella Newport and the major bacterial species constituting the swine colonic microbiota were quantified using propidium-monoazide-coupled quantitative polymerase chain reaction (PMA-qPCR). Samples collected from the reactors were treated with propidium monoazide (PMA dye, Biotium, Inc., Hayward, CA, United States) for viable bacteria counts as described previously ([Fernandez et al., 2016]). […]
The quantitative PCR (qPCR) was performed in MicroAmp® Fast Optical 96-Well Reaction Plates with Barcode (Life Technologies Inc., Burlington, ON, Canada) on an ABI 7500 Real-Time PCR System (Applied Biosystems, Streetsville, ON, Canada). Each sample was analyzed in duplicate. […]

[2] = tested on: porcine intestinal microbiota; assay: 16S rRNA gene amplicon sequencing of microbiota in PolyFermS model (alpha/beta diversity, taxonomy); format: cell-based, swine; conditions: for change in microbial composition (PCoA of Bray Curtis similarity matrix, PERMANOVA) compared to Salmonella alone: 24 h fermentation, two replicates F1 and F2, 0.4 mM MccJ25, 4 mM reuterin, p value 0.001 for significant differences; for change in microbial composition (PCoA of Bray Curtis similarity matrix, PERMANOVA) compared to Salmonella alone / change in alpha diversity (Shannon index and number of observed ASVs): 0.6 mM rifampicin; for change in alpha diversity (Shannon index and number of observed ASVs): rifampicin effect from the 8-h time point until end of fermentation, 0.4 mM MccJ25, 4 mM reuterin
Procedure: as §1
The microbial community at different time points along the fermentation was analyzed by Illumina next-generation 16S rRNA gene amplicon sequencing. Taxonomic analysis were assessed by sequencing the bacterial 16S rRNA gene in the V3-V4 region using the amplification primers 341F (5′-CCTACGGGNGGCWGCAG-3′) and 805R (5′-[…]-3′) adapted to incorporate the transposon-based Illumina Nextera adapters (Illumina, United States) and a sample barcode sequence allowing multiplexed sequencing ([García-López et al., 2020]). High-throughput sequencing was performed at the Institute for Integrative Systems Biology (Université Laval, Québec, Canada) on a MiSeq platform using 2 × 300 bp paired-end sequencing (Illumina, United States). The raw sequence data have been submitted to European Nucleotide Archive (ENA) database with accession number PRJEB52762.
Raw data were processed using the DADA2 R package (version 1.14.1) ([Callahan et al., 2016]) to obtain exact amplicon sequence variants (ASVs) using the metabaRpipe R package^1. Briefly, forward and reverse reads were truncated after 260 and 250 nucleotides, respectively. After truncation, reads with expected error rates higher than three and four for forward and reverse reads, respectively, were removed. After filtering, error rate learning, ASV inference and denoising, reads were merged with a minimum overlap of 15 nucleotides. Chimeric sequences were identified and removed. Taxonomy was assigned to ASVs using DADA2 against SILVA database (v138.1) ([Glöckner et al., 2017]). Phylogenetic relatedness of ASVs, alpha diversity (Observed and Shannon indexes) and beta diversity analyses (Bray Curtis similarity matrix) were performed using the phyloseq R package ([McMurdie and Holmes, 2013]) and the DivComAnalyses packages^2.
The rarefied ASV table was used to calculate richness and diversity indices.

[3] = tested on: Salmonella Newport; conditions: PolyFermS continuous culture simulating swine proximal colon; ref Naimi et al., 2020; cited from earlier work
Text: Microcin J25 (MccJ25) is one of the most studied Gram-negative bacteriocins. This 21-amino-acid posttranslationally modified peptide produced by E. coli is a potent inhibitor of Enterobacteriaceae including Salmonella ([Rintoul et al., 2001]). It is a typical lasso peptide ([Arnison et al., 2013]; [Wang and Zhang, 2018]) which is characterized by an 8-residue macrolactam ring that is closed by an isopeptide bond between the N-terminus and the side chain carboxylate of a glutamate at position 8. The ring is threaded by the resulting tail that is locked inside by two bulky amino acid side chains ... || Enumerating specific bacterial groups by PMA-qPCR provided first a global information on the composition of the swine gut microbial community. Rifampicin induced important changes in Bacteroides, Lactobacillaceae and total 16S rRNA gene contents at the end of the colonic fermentation while no major effects were observed when MccJ25 and reuterin were added separately. […] Taxonomically, rifampici ... || Since MccJ25 appears to be a potent inhibitor of Salmonella Newport in the PolyFermS continuous culture model of the porcine proximal colonic microbiome as shown previously ([Naimi et al., 2020]), it should be considered as a potential alternative to antibiotics in pork production. […] This is important since it has been shown that changes in gut microbiota composition are associated with various metabolic disorders and likely subject the ...

[4] = tested on: swine colonic microbiota metabolome; assay: LC-MS metabolomic profiling of swine colonic microbiota in PolyFermS model; format: cell-based; conditions: for impact on the metabolome of the swine colonic microbiota (LC-MS profiles, PCA): PolyFermS pellet extracts, 0.4 mM MccJ25, 4 mM reuterin, 0.6 mM rifampicin, MccJ25 effect decreased with time, rifampicin effect increased
Procedure: as §1
Resulting networks were visualized using Cytoscape 3.7.1.

[5] = tested on: E. coli; conditions: reuterin 1.3 mM, without affecting other bacterial populations; ref Cleusix et al., 2008; cited from earlier work
Procedure: Enumerating specific bacterial groups by PMA-qPCR provided first a global information on the composition of the swine gut microbial community. Rifampicin induced important changes in Bacteroides, Lactobacillaceae and total 16S rRNA gene contents at the end of the colonic fermentation while no major effects were observed when MccJ25 and reuterin were added separately. […] Taxonomically, rifampici ...

[6] = cited from earlier work
Text: (§2) Microcin J25 (MccJ25) is one of the most studied Gram-negative bacteriocins. This 21-amino-acid posttranslationally modified peptide produced by E. coli is a potent inhibitor of Enterobacteriaceae including Salmonella ([Rintoul et al., 2001]). It is a typical lasso peptide ([Arnison et al., 2013]; [Wang and Zhang, 2018]) which is characterized by an 8-residue macrolactam ring that is closed by an isopeptide bond between the N-terminus and the side chain carboxylate of a glutamate at position 8. The ring is threaded by the resulting tail that is locked inside by two bulky amino acid side chains ...

[7] = tested on: weaned pigs; conditions: MccJ25 purity above 99%; ref Yu et al., 2017; cited from earlier work
Text: as §2

[8] = tested on: E. coli infection; conditions: highly purified MccJ25; ref Yu et al., 2022; cited from earlier work
Text: (§3) The widespread use of antibiotics in livestock production has led to the emergence of antibiotic-multiresistant bacteria, which can infect humans via the food chain. The use of antibiotics as growth promoters has been banned outright in several industrialized countries, which has increased the urgency of the search for alternatives. Researchers began decades ago to propose bacteriocins as substitutes. In addition to their natural origin, being mostly indigenous to the gut microbiota, and their potent inhibitory activity, bacteriocins are most often endowed with a narrow spectrum of antibacteri ...

[9] = tested on: clinically relevant veterinary multidrug-resistant strains; conditions: highly purified MccJ25; ref Yu et al., 2022; cited from earlier work
Text: as §3

[10] = PolyFermS TR1/TR2, Salmonella Newport 10^7 cfu/mL + 0.6 mM rifampicin, after 12 h, followed by regrowth

Compound | reduction of Bacteroides counts [1, 10] | reduction of total cell counts [1, 10] | relative abundance of Escherichia-Shigella (ASV002) ([2]; 0.6 mM rifampicin + Salmonella Newport, at 12 h, enriched from the 8-h time point) | taxonomic change at the phylum level ([2]; 0.6 mM rifampicin + Salmonella Newport, from the 6-h time point, both reactors F1 and F2) | change in microbial composition (PCoA of Bray Curtis similarity matrix, PERMANOVA) compared to Salmonella alone [2] | change in alpha diversity (Shannon index and number of observed ASVs) [2] | inhibitory activity against Salmonella Newport [3] | impact on the metabolome of the swine colonic microbiota (LC-MS profiles, PCA) [4] | change in amino acid levels in microbiota metabolome ([4]; PolyFermS, 0.6 mM rifampicin + Salmonella Newport, extracted ion chromatograms) | effect on E. coli population [5] | impact on total bacterial counts [1] | stability to denaturing conditions, high temperatures, extreme pHs and certain proteases [6] | effect of supplemented diet on weaned pigs [7] | effect on inflammation [8] | bactericidal activity in vitro [9] | metabolomics profile after 24 h treatment ([4]; PolyFermS, 0.4 mM MccJ25 + Salmonella Newport, 24 h)
CO[C@H]1/C=C/O[C@@]2(C)Oc3c(C)c(O)c4c(O)c(c(/C=N/N5CCN(C)CC5)c(O)c4c3C2=O)NC(=O)/C(C)=C\C=C\[C@H](C)[C@H](O)[C@@H](C)[C@@H](O)[C@@H](C)[C@H](OC(C)=O)[C@@H]1C [rifampicin, Rifampicin] | approximately 1 log | approximately 1 log | more than 44% | increase of the relative abundance of Proteobacteria and Firmicutes phyla | significant differences | significant decrease | inhibits Salmonella growth | significant effects | increase in the levels of Leu/Ile, Phe, Tyr and Trp amino acids | – | – | – | – | – | – | –
O=CCCO [reuterin, 3-hydroxypropanal] | – | – | – | – | No significant changes | did not induce a remarkable changes | did not inhibit Salmonella Newport | no impact | – | significantly and selectively decrease E. coli | did not induce significant impact | – | – | – | – | –
Microcin J25 (GGAGHVPEYFVGIGTPISFYG; lactam N-8; also: lasso macrolactam, places not given here; UniProt Q9X2V7 38-58, looked up) [MccJ25, 21-amino-acid posttranslationally modified lasso peptide bacteriocin produced by E. coli; 8-residue macrolactam ring closed by isopeptide bond to Glu8] | – | – | – | – | significant differences | did not induce a remarkable changes | remained potent over 24 h | – | – | – | did not induce significant impact | remarkable stability | improve growth performance, and attenuate diarrhea and systematic inflammation | decrease inflammation | efficient bactericidal activity | close to that before treatment
